This note sets out measurements from patent US10745428B2, “Antiviral phosphodiamide prodrugs of tenofovir” (Merck Sharp & Dohme Corp., priority 2015, dated 2020).

Molecules are shown by their SMILES. Read-outs that look alike come from different tables or passages of the source.

For this experiment, the system named is HIV-1 (H9/IIIB strain). Nature of the experiment: Multiple round HIV-1 infection assay (Viking assay), HIV-1 replication in MT4-GFP cells. The experiment is classed as cell-based. To be noted: MT4-GFP cells infected with HIV-1 H9/IIIB. The method, then:
The antiviral activity of the tenofovir prodrugs of the Examples herein was assessed in an assay that measures the rate of replication of HIV in cell culture, termed the Viking assay (VIral KINetics in Green cells) and performed as follows. HIV-1 replication was monitored using MT4-gag-GFP clone D3 (hereafter designated MT4-GFP; GFP is green fluorescent protein), which are MT-4 cells modified to harbor a GFP reporter gene, the expression of which is dependent on the HIV-1 expressed proteins tat and rev; see Wang Y-J et al., 2010J Virological Methods 165:230-237. Productive infection of an MT4-GFP cell with HIV-1 results in GFP expression approximately 24 h post-infection. MT4-GFP cells were maintained at 37° C./5% CO2/90% relative humidity in RPMI 1640 supplemented with 10% fetal bovine serum, 100 U/ml penicillin/streptomycin, and 400 μg/ml G418 to maintain the reporter gene. For infections, MT4-GFP cells were placed in the same medium lacking G418 and infected overnight with HIV-1 (H9/IIIB strain) virus at an approximate multiplicity of infection of 0.01 in the same incubation conditions. Cells were then washed and re-suspended in either RPMI 1640 supplemented with 10% or 50% normal human serum (NHS) at 1.6×10^5 cells/mL (10% NHS or 50% NHS, respectively). Compound plates were prepared by dispensing compounds dissolved in DMSO into wells of 384 well poly-D-lysine-coated plates (0.2 μl/well) using an ECHO acoustic dispenser. Each compound was tested in a 10-point serial 3-fold dilution (typical final concentrations: 8.4 μM-0.42 nM). Controls included no inhibitor (DMSO only) and a combination of three antiviral agents (efavirenz, indinavir, and an integrase strand transfer inhibitor at final concentrations of 4 μM each). Cells were added (50 μL/well) to compound plates and the infected cells were maintained at 37′C/5% CO2/90% relative humidity.
Infected cells were quantified at two time points, ˜48 h and ˜72 h post-infection, by counting the number of green cells in each well using an Acumen eX3 scanner. The increase in the number of green cells over ˜24 h period gives the reproductive ratio, R0, which is typically 5-15 and has been shown experimentally to be in logarithmic phase (data not shown). R0 is calculated for each well, and IC50s determined by non-linear 4-parameter curve fitting.

[1] abbreviates: 10% normal human serum, read-out: Viking, IC50 (10% NHS).
Where [2] appears, read: 50% normal human serum, read-out: Viking, IC50 (50% NHS).
Setting [3] is: Human immunodeficiency virus 1, IIIB, 10% normal human serum, read-out: Viking, IC50 (10% NHS).
Setting [4] is: Human immunodeficiency virus 1, IIIB, 50% normal human serum, read-out: Viking, IC50 (50% NHS).

With `CCCCCCOC(=O)[C@@H](C)NP(=O)(CO[C@H](C)Cn1cnc2c(N)ncnc21)NC(C)(C)C(=O)OC(C)C` (single isomer, unassigned) [Example 7B], the IC50 worked out at 4.7 nM under setting [1] and 28.8 nM under setting [2].
For the molecule `CCCCCOC(=O)C(C)(C)NP(=O)(CO[C@H](C)Cn1cnc2c(N)ncnc21)N[C@H](C)C(=O)OC1CCC1` (single isomer, unassigned) [Example 19A], the IC50 under setting [1] worked out at 6.9 nM and the IC50 under setting [2] stood at 27.4 nM.
On to `CC(C)OC(=O)C(C)(C)NP(=O)(CO[C@H](C)Cn1cnc2c(N)ncnc21)N[C@H](C)C(=O)OC1CCC1` (single isomer, unassigned) [Example 18A], for which the IC50 was 20 nM under setting [3] and 34.2 nM under setting [4].
As to `CC(C)OC(=O)[C@@H](C)NP(=O)(CO[C@H](C)Cn1cnc2c(N)ncnc21)NC(C)(C)C(=O)OC(C)C` (single isomer, unassigned) [Example 4A], the half-maximal inhibitory concentration (IC50) is, setting by setting: under setting [1], 418 nM; under setting [2], 1400 nM.
On to `CCCCCCOC(=O)C(C)(C)NP(=O)(CO[C@H](C)Cn1cnc2c(N)ncnc21)N[C@H](C)C(=O)OC1CCCC1` (single isomer, unassigned) [Example 14A], for which the 50% inhibitory concentration (IC50) under setting [1] came out at 9.8 nM and the IC50 under setting [2] worked out at 67.2 nM.
`CCCCCOC(=O)[C@@H](C)NP(=O)(CO[C@H](C)Cn1cnc2c(N)ncnc21)NC(C)(C)C(=O)OC(C)C` (single isomer, unassigned) [Example 8A]: the 50% inhibitory concentration (IC50) is, setting by setting: under setting [4], 41.4 nM; under setting [1], 12.6 nM.
For `CCCCOC(=O)C(C)(C)NP(=O)(CO[C@H](C)Cn1cnc2c(N)ncnc21)N[C@H](C)C(=O)OC1CCC1` (single isomer, unassigned) [Example 23A], the half-inhibitory concentration (IC50) under setting [3] was found to be 6.7 nM and the concentration for half-maximal inhibition (IC50) under setting [2] turned out to be 35.5 nM.
In the case of `CC(C)COC(=O)[C@@H](C)NP(=O)(CO[C@H](C)Cn1cnc2c(N)ncnc21)NC(C)(C)C(=O)OC(C)C` (single isomer, unassigned) [Example 5B], the half-inhibitory concentration (IC50) came to 2.5 nM under setting [1] and 6.4 nM under setting [2].
On the same counts, the results for `CCCCCCOC(=O)C(C)(C)NP(=O)(CO[C@H](C)Cn1cnc2c(N)ncnc21)N[C@H](C)C(=O)OCC(C)C` (single isomer, unassigned) [Example 10A] are 6.6 nM and 72.5 nM.
On the same counts, the results for `CCCCCCOC(=O)C(C)(C)NP(=O)(CO[C@H](C)Cn1cnc2c(N)ncnc21)N[C@H](C)C(=O)OC1CCCCC1` (single isomer, unassigned) [Example 15A] are 7.7 nM and 25.9 nM.
Take `CCCCCOC(=O)[C@H]1CCCN1P(=O)(CO[C@H](C)Cn1cnc2c(N)ncnc21)NC(C)(C)C(=O)OCCCCC` (single isomer, unassigned) [Example 26A]: the IC50 runs as follows: under setting [3], 5.3 nM; under setting [2], 50.3 nM.
With `CCCCCCOC(=O)C(C)(C)NP(=O)(CO[C@H](C)Cn1cnc2c(N)ncnc21)N[C@H](C)C(=O)OCCCC` (single isomer, unassigned) [Example 11B], the IC50 reads like this: under setting [1], 0.8 nM; under setting [2], 2.6 nM.
Regarding `CCCCCCOC(=O)C(C)(C)NP(=O)(CO[C@H](C)Cn1cnc2c(N)ncnc21)N[C@H](C)C(=O)OC1CCC1` (single isomer, unassigned) [Example 21A], the IC50 by setting is: under setting [1], 4.4 nM; under setting [2], 14.9 nM.
As for `CCCCCCOC(=O)C(C)(C)NP(=O)(CO[C@H](C)Cn1cnc2c(N)ncnc21)N[C@H](C)C(=O)OCCCCC` (single isomer, unassigned) [Example 12A], the IC50 is 7.3 nM under setting [1] and 54.4 nM under setting [2].
On the same counts, the results for `CC(C)COC(=O)[C@@H](C)NP(=O)(CO[C@H](C)Cn1cnc2c(N)ncnc21)NC(C)(C)C(=O)OC(C)C` (single isomer, unassigned) [Example 5A] are 33.1 nM and 129 nM.
Turning to `CC(C)OC(=O)[C@@H](C)NP(=O)(CO[C@H](C)Cn1cnc2c(N)ncnc21)NC(C)(C)C(=O)OC(C)C` (single isomer, unassigned) [Example 4B], the IC50 reads like this: under setting [1], 74.6 nM; under setting [2], 122 nM.
The corresponding values for `CCCCCOC(=O)[C@@H](C)NP(=O)(CO[C@H](C)Cn1cnc2c(N)ncnc21)NC(C)(C)C(=O)OC(C)C` (single isomer, unassigned) [Example 8B] are 3.9 nM and 20.7 nM.
The corresponding values for `CC(C)OC(=O)C(C)(C)NP(=O)(CO[C@H](C)Cn1cnc2c(N)ncnc21)N[C@H](C)C(=O)OC1CCCCC1` (single isomer, unassigned) [Example 6B] are 1.9 nM and 5.6 nM.
In the case of `CCCCCCOC(=O)[C@@H](C)NP(=O)(CO[C@H](C)Cn1cnc2c(N)ncnc21)NC(C)(C)C(=O)OC(C)C` (single isomer, unassigned) [Example 7A], the concentration for half-maximal inhibition (IC50) was 10.4 nM under setting [1] and 57.8 nM under setting [2].
On the same counts, the results for `CCCCCOC(=O)[C@@H](C)NP(=O)(CO[C@H](C)Cn1cnc2c(N)ncnc21)NC(C)(C)C(=O)OCCCCC` (single isomer, unassigned) [Example 16A] are 10 nM and 60.1 nM.
The corresponding values for `CCCCCCOC(=O)C(C)(C)NP(=O)(CO[C@H](C)Cn1cnc2c(N)ncnc21)N[C@H](C)C(=O)OCCCC` (single isomer, unassigned) [Example 11A] are 9.9 nM and 99 nM.
On the same counts, the results for `CCCCCCOC(=O)C(C)(C)NP(=O)(CO[C@H](C)Cn1cnc2c(N)ncnc21)N[C@H](C)C(=O)OC1CCC1` (single isomer, unassigned) [Example 21B] are 0.7 nM and 2.8 nM.
In the case of `CC(C)OC(=O)C(C)(C)NP(=O)(CO[C@H](C)Cn1cnc2c(N)ncnc21)N[C@H](C)C(=O)OC1CCCC1` (single isomer, unassigned) [Example 1A], the IC50 was determined as 19.3 nM under setting [1] and 44.3 nM under setting [2].
On to `CC(C)OC(=O)C(C)(C)NP(=O)(CO[C@H](C)Cn1cnc2c(N)ncnc21)N[C@H](C)C(=O)OC1CCCCC1` (single isomer, unassigned) [Example 6A], for which the IC50 by setting is: under setting [1], 101 nM; under setting [2], 500 nM.
Consider `C[C@H](Cn1cnc2c(N)ncnc21)OCP(=O)(N[C@H](C)C(=O)OC1CCCC1)NC(C)(C)C(=O)OC1CCC1` (single isomer, unassigned) [Example 28A], for which the IC50 is 5.4 nM under setting [3] and 16.1 nM under setting [2].
As to `CCCCCCOC(=O)C(C)(C)NP(=O)(CO[C@H](C)Cn1cnc2c(N)ncnc21)N[C@H](C)C(=O)OCCCCC` (single isomer, unassigned) [Example 12B], the half-maximal inhibitory concentration (IC50) runs as follows: under setting [1], 0.5 nM; under setting [2], 3.3 nM.
On the same counts, the results for `CCCCOC(=O)[C@@H](C)NP(=O)(CO[C@H](C)Cn1cnc2c(N)ncnc21)NC(C)(C)C(=O)OC(C)C` (single isomer, unassigned) [Example 3A] are 20.7 nM and 71.4 nM.
On the same counts, the results for `C[C@H](Cn1cnc2c(N)ncnc21)OCP(=O)(N[C@H](C)C(=O)OC1CCCC1)NC(C)(C)C(=O)OC1CCCCC1` (single isomer, unassigned) [Example 27A] are 12.9 nM and 64.5 nM.
